Values quoted from earlier work as cited in patent US9790253B2, “OSW-1 analogs and conjugates, and uses thereof” (priority 2011, dated 2017).

Molecular target: OSBP (oxysterol-binding protein) (Homo sapiens, UniProt P22059)
Settings: cited from earlier work

OSBP (oxysterol-binding protein), sequence (P22059 whole entry, species assumed): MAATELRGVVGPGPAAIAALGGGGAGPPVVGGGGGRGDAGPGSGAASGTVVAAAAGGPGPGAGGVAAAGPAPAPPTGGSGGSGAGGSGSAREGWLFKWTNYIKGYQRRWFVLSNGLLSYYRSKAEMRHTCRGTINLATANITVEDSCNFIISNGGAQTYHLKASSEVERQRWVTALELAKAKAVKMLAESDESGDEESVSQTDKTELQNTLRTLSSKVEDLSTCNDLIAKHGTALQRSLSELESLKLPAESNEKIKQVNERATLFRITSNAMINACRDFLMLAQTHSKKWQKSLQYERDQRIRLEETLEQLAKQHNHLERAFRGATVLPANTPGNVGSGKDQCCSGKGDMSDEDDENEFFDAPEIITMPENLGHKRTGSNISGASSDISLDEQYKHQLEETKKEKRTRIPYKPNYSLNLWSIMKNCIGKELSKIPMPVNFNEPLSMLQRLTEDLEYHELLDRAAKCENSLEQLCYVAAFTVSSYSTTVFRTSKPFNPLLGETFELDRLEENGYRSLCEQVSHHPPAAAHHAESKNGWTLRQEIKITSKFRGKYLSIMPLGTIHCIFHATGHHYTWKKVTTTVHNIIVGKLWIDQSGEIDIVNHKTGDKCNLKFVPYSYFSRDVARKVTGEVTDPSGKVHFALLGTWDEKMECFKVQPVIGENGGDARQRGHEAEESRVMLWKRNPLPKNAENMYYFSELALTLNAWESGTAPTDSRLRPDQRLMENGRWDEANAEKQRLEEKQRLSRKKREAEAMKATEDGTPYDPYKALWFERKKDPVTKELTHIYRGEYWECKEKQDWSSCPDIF

C[C@H](CCCC(C)(C)O)[C@H]1CC[C@H]2[C@@H]3CC=C4C[C@@H](O)CC[C@]4(C)[C@H]3CC[C@]12C [Compound 25-OHC, 25-hydroxycholesterol]
Kd: 37 nM
